Where two headings read alike, the source gives them in different places.
What was measured:
[1] = system: HT-29 colon carcinoma cells; experiment: MTT cell viability assay, HT-29; format: cell-based, human
Method: (§1) All complexes stable in solution were investigated for their anti-proliferative effect on nine human cancer cell lines, using the MTT-based cell viability assay. Cells were seeded in 96-well microtiter plates (Sarstedt) with a cell density of 0.05 × 10^6 cells per ml and 100 µL per well and incubated for 24 h. A dilution series of test compounds was added to the wells, ranging in twelve steps from 100 µM to 5 nM. As a control, equal amounts of DMSO were added. Treated cells were further incubated for 72 h. Then, 12.5 µL per well of MTT solution (0.05% in phosphate-buffered saline (PBS)) was added, followed by another 2 h of incubation. The plates were centrifuged, the medium was discarded and 25 µL per well of SDS solution in DMSO (10% SDS, 0.6% AcOH in DMSO) was added to dissolve the formazan. The plates were incubated for a further hour. Absorbances at 570 nm and 630 nm were measured using a plate reader (Tecan). Background absorbance (630 nm) was subtracted from the formazan signal (570 nm). The resulting absorbance was directly proportional to the amount of viable cells. The control was normalized to 100% viable cells and viability of cells treated with test compounds was calculated accordingly. IC50 values were calculated based on a sigmoidal fit model using GraphPad Prism. Means and SD were calculated from at least four independent experiments.

518A2 melanoma cells [2] = experiment: Lactate dehydrogenase (LDH) cytotoxicity assay; format: cell-based, human; settings: 518A2 cells, 10 µM, 24 h
Method: 518A2 melanoma cells were seeded in 96-well flat bottom microtiter plates (Sarstedt) with 100 µL per well and a cell density of 0.05 × 10^6 cells per mL. Wells containing medium alone were additionally set for background measurement. Cells were allowed to grow overnight followed by substance treatment with 11.1 µL of tenfold concentrated test compound dilutions and further incubated for 24 h. As a positive control, 10 µL per well of lysis solution (9% Triton-X 100 in Millipore H2O) was added and incubated for 45 min to maintain maximum LDH release, the same amount was added to maximum release background correction wells containing only medium. After centrifugation (4 °C, 150×g, 5 min), 50 µL of the supernatant of each well was transferred on a fresh microtiter plate followed by addition of 50 µL LDH assay buffer (223 mg of 2-p-iodophenyl-3-p-nitrophenyl-5-phenyltetrazolium chloride, 57 mg of N-methyl-phenazonium methyl sulfate, 575 mg of […], 3.2 g of lactic acid in 480 ml 200 mM Tris–Cl, pH 8.0) per well. The plate was incubated in the dark for 10–30 min at room temperature. Then 50 µL stop solution (1 M acetic acid) was added per well and the absorbance was measured at 490 nm. The mean value of background wells with medium alone was subtracted from the negative control and test wells. Additionally, the mean value of volume correction wells was subtracted from maximum LDH release wells. The percentage of LDH release was calculated, with the maximum LDH release set as 100% and the negative control as 0% release. Means and SD were calculated from at least three independent experiments.

[3] = system: MCF-7 mamma carcinoma cells; experiment: MTT cell viability assay, MCF-7; format: cell-based, human
Method: as §1

518A2 melanoma cells [4] = experiment: Inhibition of wound healing (scratch migration assay); format: cell-based, human; settings: 518A2 cells, IC50 concentrations, 0-24 h
Method: Cells of melanoma cell line 518A2 were seeded in a volume of 500 µL and at a concentration of 0.1 × 10^6 cells/mL in 24-well plates in triplicate. The plate was incubated (37 °C, 95% humidity, 5% CO2) for two days until a confluent monolayer was formed. A 10 µL pipette tip was used to create a wound in the cell lawn, the wound was rinsed with PBS and the medium was changed to a FBS-reduced one. Pictures were taken at first time point (0 h) right before the addition of substance at 100-fold pre-dilution. The plate was then incubated again in the incubator and photos were taken at several more time points (6, 12, and 24 h) [262626].

U-87 glioblastoma cells = experiment: MTT cell viability assay, U-87; format: cell-based, human; settings: 72 h
Method: as §1

tubulin = experiment: Tubulin polymerisation assay; format: biochemical; settings: in vitro, turbidity at 340 nm
Method: First, 2 × polymerization buffer was prepared, which consisted of 385 µL Brinkley renaturing buffer 80 (BRB 80), 100 µL glycerol, and 15 µL GTP (100 mM). 50 µL of freshly prepared 2 × polymerization buffer was added to µClear black well plates. Subsequently, 11.1 µL each of a tenfold substance pre-dilution in BRB80 was added. In addition, a combretastatin A-4 positive control was prepared analogously. After rapid addition of 50 µL of tubulin per well, the measurement was started on the plate reader at 340 nm. The plate reader measured at 20 s intervals for at least 120 min until the measurement plateau was reached. For evaluation, OD 340 nm was plotted versus time.

518A2 melanoma cells [5] = experiment: Influence on the cell cycle (PI flow cytometry); format: cell-based, human; settings: 518A2 cells, 24 h, IC50 concentrations (5: approximately twice its IC50)
Method: The complexes were investigated for their effect on the cell cycle. Cells were seeded in 6-well plates (Sarstedt) with 3 mL per well and a cell density of 0.05 × 10^6 cells per mL and incubated for 24 h. […] The supernatant of each sample was transferred into a separate tube on ice, the cell monolayer was rinsed once with PBS and the cells were harvested using trypsin, and also transferred into the tube. The cells were pelleted (4 °C, 150 × g, 5 min), re-suspended in 1 mL ice cold EtOH (70%) and stored for at least 1 h at 4 °C. Prior to propidium iodide (PI) staining, the cells were centrifuged (150×g, 5 min), the supernatant was discarded and the cells were layered with 1 mL PBS for 5 min. The cells were centrifuged again and the pellet was re-suspended in 200 µL of PI staining solution (50 µg/mL PI, 1% sodium citrate in PBS) containing 1 µL RNase (10 mg/mL stock solution) and incubated in dark for 30 min at 37 °C. The cell cycle distribution was assessed by flow cytometry (Beckmann Coulter). Means and SD were calculated from at least three independent experiments.

518A2 melanoma cells [6] = system: 518A2 melanoma cells; set-up: method as in Bär et al. [33]; settings: MTT, value marked * ref Bär et al. [33]; cited from earlier work
[7] = Stability in cell culture medium by UV/Vis spectroscopy; format: physicochemical; settings: 0–30 min and 3 days
Text: In a further corroboration of the complex stability, the similarity of the chalcogens sulfur and selenium was exploited. The selenolato complex 10 was synthesized and examined for its stability under identical conditions. Since ^77Se is a 1/2 spin nucleus with roughly 8% natural abundance, its compounds can be investigated directly. Depending on whether a break in the Se–Au or the Au–PR3 bond would occur, the shift would change by several hundred ppm and serve as unequivocal evidence. […] In addition, we investigated the stability of complexes 1 and 5 as representatives of the series of purines and purine nucleosides, respectively, in cell culture medium by UV/Vis spectroscopy.

| Structure (SMILES) | IC50 ([1]; 72 h) [µM] | LDH release (necrosis) (518A2 melanoma cells [2]) | IC50 ([3]; 72 h, read-out: IC50 MCF7) [µM] | Effect on cell migration (scratch closure) (518A2 melanoma cells [4]) | IC50 (U-87 glioblastoma cells) [µM] | Inhibition of tubulin polymerization (tubulin) | IC50 ([1]; Homo sapiens, HT-29, 72 h) [µM] | IC50 ([3]; Homo sapiens, MCF7, 72 h) [µM] | Effect on the cell cycle (518A2 melanoma cells [5]) | IC50 (U-87 glioblastoma cells; Homo sapiens) [µM] | IC50 (518A2 melanoma cells [6]) [µM] | Stability in cell culture medium (UV/Vis) [7] |
| --- | --- | --- | --- | --- | --- | --- | --- | --- | --- | --- | --- | --- |
| Nc1nc([S][Au][PH](c2ccccc2)(c2ccccc2)c2ccccc2)c2ncn([C@@H]3O[C@H](CO)[C@@H](O)[C@H]3O)c2n1 [Complex 6, (2-Amino-1,7-dihydro-6H-purine-9-β-D-ribofuranosyl-6-thiolato) (triphenylphosphane) gold(I)] | 3.1 ± 0.19 | no enzyme could be detected | 5.8 ± 0.57 | even accelerated it | 1.2 ± 0.12 | merely slight inhibition of tubulin polymerization |  |  |  |  |  |  |
| Nc1nc2nc[nH]c2c(=S)[nH]1 [6-TG, 6-thioguanine, reference compound] |  | no enzyme could be detected |  |  |  | inhibited tubulin polymerization | 1.2 ± 0.08 | 0.98 ± 0.08 | accumulated in G1-phase | 1.7 ± 0.08 |  |  |
| CC(=O)OC[C@H]1O[C@@H]([S-])[C@H](OC(C)=O)[C@@H](OC(C)=O)[C@@H]1OC(C)=O.CCP(CC)CC.[Au+] [Auranofin, auranofin] | 2 ± 0.18 | no enzyme could be detected | 2.2 ± 0.22 |  | 2.4 ± 0.24 | microtubule-destabilizing agent |  |  | arrested mainly in S-phase |  | 1.8 ± 0.03 |  |
| OC[C@H]1O[C@@H](n2cnc3c([S][Au][PH](c4ccccc4)(c4ccccc4)c4ccccc4)ncnc32)[C@H](O)[C@@H]1O [Complex 5, (1,7-Dihydro-6H-purine-9-β-D-ribofuranosyl-6-thiolato) (triphenylphosphane) gold(I)] | 1.2 ± 0.09 | no enzyme could be detected | 2.4 ± 0.22 | retarded the closure of the scratch | 1.7 ± 0.15 | merely slight inhibition of tubulin polymerization |  |  | both a G1-phase arrest and an S-phase arrest |  |  | stable under the test conditions |
| Sc1ncnc2nc[nH]c12 [6-MP, 6-Mercaptopurine, reference compound] |  | no enzyme could be detected |  |  |  | inhibited tubulin polymerization | 1.4 ± 0.06 | 3.7 ± 0.26 | accumulated in G1-phase | 1.4 ± 0.13 |  |  |

— article PMC9653339, “Revisiting the anticancer properties of phosphane(9-ribosylpurine-6-thiolato)gold(I) complexes and their 9H-purine precursors” (Journal of Biological Inorganic Chemistry, 2022)
